Measured values from patent US20240208898A1, “ENAMINE N-OXIDES: SYNTHESIS AND APPLICATION TO HYPOXIA-RESPONSIVE PRODRUGS AND IMAGING AGENTS” (DANA-FARBER CANCER INSTITUTE, INC., priority 2021, published 2024).
One block for each compound: values may come before it.

How the values were obtained:
[1] = Assay evaluating the importance of enamine N-oxide unsaturation; type: physicochemical; conditions: reductants B2(OH)4 or Fe^2+, 100 mM HEPES, pH 7.4, HPLC
Protocol: Enamine N-oxide 6 or alkyl N-oxide S4 (50 μL, 4 mM in water; 200 μM final concentration) were added to a HEPES buffered solution (750 μL, 100 mM HEPES, pH 7.4; 1 mL final volume) in an HPLC vial. N-oxide reduction was initiated by adding a solution of tetrahydroxydiboron (200 μL, 200 nmol, 1 equiv, 1 mM in ethanol) and the resulting solution was incubated at room temperature. After 1 hour, solutions were analyzed by HPLC (C18 column, 4.6×50 mm, 2.4 μm particle size, 1 mL/minute flow rate, eluent: gradient H2O+0.1% TFA (1 minute), gradient 0→100% MeCN/H2O+0.1% TFA (4 minutes), MeCN+0.1% TFA (1 minute)). p-Cresol was quantified by its absorbance at 280 nm.

[2] = Degradation studies of isolated enamine N-oxides in solvent at 60° C.; type: physicochemical; conditions: 6 hours, NMR
Protocol: Degradation studies were performed using isolated enamine N-oxides (5:5′, 15:1). An LC-MS vial was charged with a 0.1 M solution of enamine N-oxides (23.9 mg, 100 μmol) in the reaction solvent of interest and heated to 60° C. for 6 hours. After heating, the reaction mixture was concentrated under reduced pressure and dissolved in CDCl3. The amounts of enamine N-oxides (5 and 5′) and p-fluorophenol (4) were determined by ^1H and ^19F-NMR integrations using benzotrifluoride as an internal standard. Regioisomer ratios in different solvents were determined by ^1H-NMR integrations of vicinal versus geminal olefinic protons.

[3] = Assay evaluating the stability of enamine N-oxides to metal cations; type: physicochemical; conditions: 200 μM, 2 mM cations, 1 h, room temperature, 100 mM HEPES pH 7.4; Fe^2+ with 10 mM sodium dithionite
Protocol: Enamine N-oxide 3a (50 μL, 4 mM in water; 200 μM final concentration) was added to a HEPES buffered solution (946 μL, 100 mM HEPES, pH 7.4; 1 mL final volume) in an HPLC vial. A solution of metal cation (4 μL, 500 mM in water, 2 mM final concentration) was then added and the solution was incubated at room temperature. After 1 hour, solutions were analyzed by HPLC (C18 column, 4.6×50 mm, 2.4 μm particle size, 1 mL/minute flow rate, eluent: gradient H2O+0.1% TFA (1 minute), gradient 0→100% MeCN/H2O+0.1% TFA (4 minutes), MeCN+0.1% TFA (1 minute)). p-Cresol was quantified by its absorbance of 280 nm.
The following cations were assayed using this procedure: sodium chloride, potassium chloride, calcium chloride, magnesium chloride, manganese (II) chloride, cobalt (II) sulfate, zinc (II) chloride, nickel (II) acetate, and iron (III) chloride.
For iron (II) sulfate, a solution of iron (II) sulfate (2 μL, 1 M in 1 N HCl; 2 mM final concentration) was added followed by a solution of sodium dithionite (10 μL, 1 M in 1 N NaOH; 10 mM final concentration).

[4] = Thermal decomposition of enamine N-oxide (Cope elimination); type: physicochemical; conditions: 60° C. in CDCl3 for 1 h
Protocol: A 1-dram vial was charged with enamine N-oxide S1 (90.0 mg, 179 μmol, 1 equiv) and dissolved in chloroform-d (1.79 mL). The reaction vial was flushed with nitrogen, sealed with a cap and Parafilm, and heated to 60° C. After 1 hour, the oil bath was removed and the reaction was cooled to room temperature. The reaction mixture was purified by flash column chromatography on silica gel (eluent: 5% CMA in chloroform). Fractions containing the desired compound were combined and the solvent was removed under reduced pressure at 0° C. with a rotary evaporator to provide the product S2 (14.9 mg, 34%) as an off-white solid. ^1H NMR (500 MHz, CDCl3, 25° C.): δ 7.94 (d, J=8.3, 1H), 7.86 (d, J=7.3, 1H), 7.79 (d, J=7.9, 1H), 7.55-7.35 (m, 4H), 7.31 (d, J=9.6, 1H), 6.16 (dd, J=36.1, 9.7, 1H), 4.08 (d, J=14.0, 2H), 3.65 (s, 3H). ^13C NMR (126 MHz, CDCl3, 25° C.): δ 165.7 (d, J=277.1), 134.2, 132.0, 130.7 (d, J=3.0), 130.4 (d, J=3.2), 129.1, 128.6, 128.1, 126.8, 126.1, 125.7, 123.6, 100.2 (d, J=8.1), 52.6, 36.5 (d, J=26.2). ^19F NMR (471 MHz, CDCl3, 25° C.): δ −89.5. FTIR (thin film) cm^−1: 2922 (m), 2855 (w), 1662 (m), 1569 (w), 1408 (m), 1140 (s), 779 (s). HRMS (ESI) (m/z): calc'd for C15H15FNO [M+H]^+: 244.1132, found: 244.1129. TLC (5% CMA/chloroform), Rf: 0.30 (UV, KMnO4).
A 1-dram vial was charged with enamine N-oxide S1 (90.0 mg, 179 μmol, 1 equiv) and dissolved in chloroform-d (1.79 mL). […]

[5] = Nucleophilic trapping experiment with benzyl mercaptan; type: physicochemical; conditions: benzyl mercaptan (10 equiv), room temperature
Protocol: A round-bottom flask was charged with (E)-N,N-diethyl-4-phenyl-3-(p-tolyloxy)but-1-en-1-amine oxide (S6, 26.0 mg, 79.8 μmol, 1 equiv) and dissolved with chloroform-d (773 μL) at room temperature. Benzylmercaptan (93.7 μL, 798 μmol, 10.0 equiv) was then added via syringe. After 5 minutes, analysis by TLC indicated no reduction by benzylmercaptan. Solid bis(pinacolato)diboron (20.3 mg, 79.8 μmol, 1.00 equiv) was then added in one portion at room temperature. After 15 minutes, the reaction was directly loaded onto a silica gel column. The reaction mixture was purified by flash column chromatography (eluent: 100% chloroform) to provide aldehyde S7 (20.2 mg, 94%) as an off-white solid. ^1H NMR (500 MHz, CDCl3, 25° C.): δ 9.51 (dd, J=2.5, 1.4 Hz, 1H), 7.33-7.18 (m, 8H), 7.14-7.08 (m, 2H), 3.68 (q, J=13.4, 10.4 Hz, 2H), 3.20 (tdd, J=8.1, 6.5, 5.6 Hz, 1H), 2.97 (dd, J=13.7, 6.4 Hz, 1H), 2.78 (dd, J=13.8, 8.2 Hz, 1H), 2.60-2.40 (m, 2H). ^13C NMR (126 MHz, CDCl3, 25° C.): δ 200.7, 138.6, 138.1, 129.6, 129.2, 128.8, 128.7, 127.4, 127.0, 47.8, 42.3, 40.5, 36.1. FTIR (thin film) cm^−1: 3026 (w), 2922 (w), 1722 (s), 1494 (m), 1453 (m), 700 (s). HRMS (ESI) (m/z): calc'd for C17H19OS [M+H]^+: 271.1151, found: 271.1149. TLC (100% chloroform), Rf: 0.45 (UV, KMnO4).

human liver microsomes = assay: In vitro microsomal reduction assay; type: in vitro ADME; conditions: hypoxic vs normoxic, 2-nitroaniline released, absorbance at λ=412 nm
Protocol: All reactions were prepared and carried out in a semi-micro spectrophotometer quartz cell fitted with a septum screw cap (Starna Cells). For anaerobic conditions, all solutions were degassed for 30 minutes by sparging with nitrogen. Cells were maintained under anaerobic conditions using nitrogen lines connected to a nitrogen gas manifold or using a nitrogen-filled balloon. In experiments requiring normoxic conditions, the quartz cells were left open to ambient atmosphere. Unless otherwise stated, reactions were prepared as follows. A solution of human liver microsomes (10 μL, 20 mg/mL in phosphate buffer, pH 7.4, Corning; 200 μg/mL final concentration) followed by a solution of NADPH (16.7 μL, 60 mM in 10 mM NaOH solution; 1 mM final concentration) was added to a phosphate buffered solution ([…], 100 mM phosphate buffer, pH 7.4; 1 mL final volume) at room temperature. After 1 hour, reactions were initiated by the addition of a stock solution of the 2-nitroaniline enamine N-oxide probes 32a-f (50 μL, 4 mM in phosphate buffer, pH 7.4; 200 μM final concentration). […]
Heat-inactivated microsomes were prepared for control experiments by heating a solution of human liver microsomes (20 mg/mL in phosphate buffer, pH 7.4, Corning) to 45° C. for 30 minutes. […]

[6] = Enamine N-oxides with reducing agents; type: physicochemical; conditions: probe 200 μM
Protocol: A stock solution of 2-nitroaniline enamine N-oxide probe 32c (50 μL, 4 mM in 100 mM phosphate buffer, pH 7.4; 200 μM final concentration) was added to a phosphate buffered solution (850 μL, 100 mM phosphate, pH 7.4; 1 mL final volume) in a semi-micro quartz cell open to ambient atmosphere. A solution of glutathione (100 μL, 50 mM in phosphate buffer, pH 7.4; 5 mM final concentration) or cysteine (100 μL, 50 mM in phosphate buffer, pH 7.4; 5 mM final concentration) or tetrahydroxydiboron (100 μL, […] in methanol; 200 μM final concentration) were added to the solution. Reactions with glutathione or cysteine were incubated at 37° C. The reaction with tetrahydroxydiboron was carried out at room temperature. Wavelength scans (400-550 nm) were recorded at several time points (0, 1, and 2 hours).

release of p-cresol upon reduction [1]: did not lead to the release of p-cresol
SMILES: CC[N+]([O-])(CC)CCCOc1ccc(C)cc1 [alkyl N-oxide S4, N,N-diethyl-3-(p-tolyloxy)propan-1-amine oxide]

Yield (%) 4 (p-fluorophenol formed) ([2]; CHCl3, 0.1 M): 29% | Yield (%) 5 + 5′ (enamine N-oxide remaining) ([2]; CHCl3, 0.1 M): 45% | Yield (%) 4 (p-fluorophenol formed) ([2]; TFE, 0.1 M): <1% | Yield (%) 5 + 5′ (enamine N-oxide remaining) ([2]; TFE, 0.1 M): 96%
SMILES: CC[N+]([O-])(/C=C/COc1ccc(F)cc1)CC [enamine N-oxide 5, (E)-N,N-diethyl-3-(4-fluorophenoxy)prop-1-en-1-amine oxide]

release of p-cresol upon reduction [1]: led to the release of p-cresol
SMILES: CC[N+]([O-])(/C=C/COc1ccc(C)cc1)CC [enamine N-oxide 6]
stability in the presence of different metal cations [3]: Only Fe^2+ was capable of reducing enamine N-oxides

SMILES: C[N+]([O-])(/C=C/C(F)(F)Cc1cccc2ccccc12)CCCCC(=O)NCc1ccc2ccccc2c1 (stereo not shown) [enamine N-oxide S1, (E)-N-(3,3-difluoro-4-(naphthalen-1-yl)but-1-en-1-yl)-N-methyl-5-((naphthalen-2-ylmethyl)amino)-5-oxopentan-1-amine oxide]
thermal decomposition [4]: two new products were isolated in addition to the starting material

reduction in the absence of diboron [5]: not reduced in the absence of diboron
SMILES: CC[N+]([O-])(/C=C/C(Cc1ccccc1)Oc1ccc(C)cc1)CC (stereo not shown) [enamine N-oxide S6, (E)-N,N-diethyl-4-phenyl-3-(p-tolyloxy)but-1-en-1-amine oxide]

reactivity toward cysteine ([6]; 5 mM cysteine, phosphate buffer pH 7.4, 37° C., over 2 h): unreactive | reactivity toward glutathione ([6]; 5 mM glutathione (GSH), phosphate buffer pH 7.4, 37° C., over 2 h): unreactive
SMILES: CC[N+]([O-])(/C=C/COC(=O)Nc1ccccc1[N+](=O)[O-])CC [probe 32c, (E)-N,N-diethyl-3-(((2-nitrophenyl)carbamoyl)oxy)prop-1-en-1-amine oxide]
enhancement in the initial rate of reduction under hypoxic conditions (human liver microsomes): 21 fold | time until probe is fully reduced by diboron ([6]; B2(OH)4 1 equiv 200 μM, room temperature): ≤ 10 min
